Species: Rattus norvegicus
Assay: DrugMatrix - Regimen: Daily Repeat
Format: toxicity, organism-based, Sprague-Dawley
Parameters: regimen Daily Repeat, gender Male, age 6-8 weeks
Details: in vivo, po, route oral GAVAGE, vehicle 100 % WATER; for ABSOLUTE BASOPHIL / ABSOLUTE EOSINOPHIL / ABSOLUTE LYMPHOCYTE / ABSOLUTE MONOCYTE / ABSOLUTE SEGMENTED NEUTROPHIL / BASOPHIL / EOSINOPHIL / ERYTHROCYTE COUNT / HEMATOCRIT / HEMOGLOBIN / LEUKOCYTE COUNT / LYMPHOCYTE / MEAN CORPUSCULAR HEMOGLOBIN / MEAN CORPUSCULAR HEMOGLOBIN CONCENTRATION / MONOCYTE / NEUTROPHIL / NUCLEATED RED BLOOD CELLS / PLATELET COUNT: tissue Blood; for ALANINE AMINOTRANSFERASE / ALBUMIN / ALKALINE PHOSPHATASE / ASPARTATE AMINOTRANSFERASE / BLOOD UREA NITROGEN / CARBON DIOXIDE / CHLORIDE / CHOLESTEROL / CREATINE PHOSPHOKINASE / CREATININE / GLUCOSE / LACTATE DEHYDROGENASE / LIPASE / PHOSPHORUS / POTASSIUM / SODIUM / TOTAL BILIRUBIN / TOTAL PROTEIN / URIC ACID: tissue Plasma
[1] = 0 mg/kg, 72 h, dose level Control, time 3 day
[2] = 0 mg/kg, 120 h, dose level Control, time 5 day
[3] = 35 mg/kg, 72 h, dose level Low, time 3 day

Nc1ccn([C@@H]2CS[C@H](CO)O2)c(=O)n1 [LAMIVUDINE]
ABSOLUTE BASOPHIL [1]: 0 CELLS/uL | ABSOLUTE EOSINOPHIL [1]: 0 CELLS/uL | ABSOLUTE LYMPHOCYTE [1]: 8482.5 CELLS/uL | ABSOLUTE MONOCYTE [1]: 63.83 CELLS/uL | ABSOLUTE SEGMENTED NEUTROPHIL [1]: 887 CELLS/uL | BASOPHIL [1]: 0% | EOSINOPHIL [1]: 0% | ERYTHROCYTE COUNT [1]: 5.49 x10E6/uL | HEMATOCRIT [1]: 34.5% | HEMOGLOBIN [1]: 13.33 G/DL | LEUKOCYTE COUNT [1]: 9.43 x10E3/uL | LYMPHOCYTE [1]: 90.17% | MEAN CORPUSCULAR HEMOGLOBIN [1]: 24.3 pg | MEAN CORPUSCULAR HEMOGLOBIN CONCENTRATION [1]: 38.63 G/DL | MONOCYTE [1]: 0.67% | NEUTROPHIL [1]: 9.17% | NUCLEATED RED BLOOD CELLS [1]: 0.67 /100WBC | PLATELET COUNT [1]: 1022.83 x10E3/uL | ALANINE AMINOTRANSFERASE [1]: 50.5 u/L | ALBUMIN [1]: 4.08 G/DL | ALKALINE PHOSPHATASE [1]: 368.33 u/L | ASPARTATE AMINOTRANSFERASE [1]: 87.5 u/L | BLOOD UREA NITROGEN [1]: 12.83 mg/dL | CARBON DIOXIDE [1]: 32.83 mmol/L | CHLORIDE [1]: 99.67 MEQ/L | CHOLESTEROL [1]: 79.67 mg/dL | CREATINE PHOSPHOKINASE [1]: 585 u/L | CREATININE [1]: 0.22 mg/dL | GLUCOSE [1]: 135.67 mg/dL | LACTATE DEHYDROGENASE [1]: 171 u/L | LIPASE [1]: 9.5 u/L | PHOSPHORUS [1]: 11.18 mg/dL | POTASSIUM [1]: 6.25 MEQ/L | SODIUM [1]: 144.87 MEQ/L | TOTAL BILIRUBIN [1]: 0.2 mg/dL | TOTAL PROTEIN [1]: 6.08 G/DL | URIC ACID [1]: 0.65 mg/dL | ABSOLUTE BASOPHIL [2]: 0 CELLS/uL | ABSOLUTE EOSINOPHIL [2]: 14.5 CELLS/uL | ABSOLUTE LYMPHOCYTE [2]: 7596.17 CELLS/uL | ABSOLUTE MONOCYTE [2]: 69.67 CELLS/uL | ABSOLUTE SEGMENTED NEUTROPHIL [2]: 503 CELLS/uL | BASOPHIL [2]: 0% | EOSINOPHIL [2]: 0.17% | ERYTHROCYTE COUNT [2]: 5.49 x10E6/uL | HEMATOCRIT [2]: 34.72% | HEMOGLOBIN [2]: 13.47 G/DL | LEUKOCYTE COUNT [2]: 8.18 x10E3/uL | LYMPHOCYTE [2]: 92.17% | MEAN CORPUSCULAR HEMOGLOBIN [2]: 24.57 pg | MEAN CORPUSCULAR HEMOGLOBIN CONCENTRATION [2]: 38.82 G/DL | MONOCYTE [2]: 1% | NEUTROPHIL [2]: 6.67% | NUCLEATED RED BLOOD CELLS [2]: 0 /100WBC | PLATELET COUNT [2]: 1141 x10E3/uL | ALANINE AMINOTRANSFERASE [2]: 48.33 u/L | ALBUMIN [2]: 4.07 G/DL | ALKALINE PHOSPHATASE [2]: 395.67 u/L | ASPARTATE AMINOTRANSFERASE [2]: 85.67 u/L | BLOOD UREA NITROGEN [2]: 15.83 mg/dL | CARBON DIOXIDE [2]: 31.33 mmol/L | CHLORIDE [2]: 100.83 MEQ/L | CREATINE PHOSPHOKINASE [2]: 248.33 u/L | CREATININE [2]: 0.2 mg/dL | GLUCOSE [2]: 135.67 mg/dL | LACTATE DEHYDROGENASE [2]: 141.33 u/L | LIPASE [2]: 9.5 u/L | PHOSPHORUS [2]: 10.73 mg/dL | POTASSIUM [2]: 6.07 MEQ/L | SODIUM [2]: 145.35 MEQ/L | TOTAL BILIRUBIN [2]: 0.22 mg/dL | TOTAL PROTEIN [2]: 6.12 G/DL | URIC ACID [2]: 0.63 mg/dL | ABSOLUTE BASOPHIL [3]: 0 CELLS/uL | ABSOLUTE EOSINOPHIL [3]: 40.67 CELLS/uL | ABSOLUTE LYMPHOCYTE [3]: 11136 CELLS/uL | ABSOLUTE MONOCYTE [3]: 119.67 CELLS/uL | ABSOLUTE SEGMENTED NEUTROPHIL [3]: 470.33 CELLS/uL | BASOPHIL [3]: 0% | EOSINOPHIL [3]: 0.33% | ERYTHROCYTE COUNT [3]: 5.47 x10E6/uL | HEMATOCRIT [3]: 34.33% | HEMOGLOBIN [3]: 13.4 G/DL | LEUKOCYTE COUNT [3]: 11.77 x10E3/uL | LYMPHOCYTE [3]: 94.67% | MEAN CORPUSCULAR HEMOGLOBIN [3]: 24.5 pg | MEAN CORPUSCULAR HEMOGLOBIN CONCENTRATION [3]: 39.03 G/DL | MONOCYTE [3]: 1% | NEUTROPHIL [3]: 4% | NUCLEATED RED BLOOD CELLS [3]: 0 /100WBC | PLATELET COUNT [3]: 1274 x10E3/uL | ALANINE AMINOTRANSFERASE [3]: 51.67 u/L | ALBUMIN [3]: 4.27 G/DL | ALKALINE PHOSPHATASE [3]: 390.33 u/L | ASPARTATE AMINOTRANSFERASE [3]: 80.67 u/L | BLOOD UREA NITROGEN [3]: 12.33 mg/dL | CARBON DIOXIDE [3]: 34.33 mmol/L | CHLORIDE [3]: 98.33 MEQ/L | CHOLESTEROL [3]: 78 mg/dL | CREATINE PHOSPHOKINASE [3]: 237.33 u/L | CREATININE [3]: 0.2 mg/dL | GLUCOSE [3]: 124.67 mg/dL | LACTATE DEHYDROGENASE [3]: 167.33 u/L | LIPASE [3]: 10 u/L | PHOSPHORUS [3]: 10.9 mg/dL | POTASSIUM [3]: 6.42 MEQ/L | SODIUM [3]: 144.2 MEQ/L | TOTAL BILIRUBIN [3]: 0.13 mg/dL | URIC ACID [3]: 0.87 mg/dL
